US6967196B1, “Sulfonamide compounds and uses thereof” (Bristol-Myers Squibb Company, priority 1999, dated 2005)
Read-outs that look alike come from different tables or passages of the source.

Tested on: amyloid β production in transfected H4 (human neuroglioma) cells stably expressing APP constructs
Assay: In vitro cell-based assay of inhibitors of amyloid β production (ELISA)
Settings: transfected H4 cells stably expressing APP constructs, approximately 16 hours incubation, amyloid β in medium by ELISA, read-out: ACTIVITY (IC50, inhibition of amyloid β production)
How it was run: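 Test agents are screened at 10-100 μM for about 16 hours on cells stably expressing wild-type or variant APP. Secreted Aβ is measured by ELISA and compared with control-treated cells.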

| Structure (SMILES) | IC50 [nM] | IC50 (Homo sapiens, 16 h) [nM] |
| --- | --- | --- |
| C[C@H](COC(=O)NCCCn1ccnc1)N(c1cc(Cl)ccc1Cl)S(=O)(=O)c1ccc(Cl)cc1 [Example 1240, 4-Chloro-N-(2,5-dichlorophenyl)-N-[2-[[N′-[3-(1H-imidazol-1-yl)propylamino]carbonyl]oxy]-(R)-1-methylethyl]benzenesulfonamide] | ≤ 25 |  |
| C[C@H](COC(=O)N1CCC[C@H]1CO)N(c1cc(Cl)ccc1Cl)S(=O)(=O)c1ccc(Cl)cc1 [Example 1241] | ≤ 25 |  |
| C[C@H](COC(=O)NCCN1CCCCC1)N(c1cc(Cl)ccc1Cl)S(=O)(=O)c1ccc(Cl)cc1 [Example 1242] | ≤ 25 |  |
| C[C@H](COC(=O)N1CCCC1)N(c1cc(Cl)ccc1F)S(=O)(=O)c1ccc(Cl)cc1 [Example 1243, 4-Chloro-N-(2-fluoro-5-chlorophenyl)-N-[2-[[[pyrrolidin-1-yl]carbonyl]oxy]-(R)-1-methylethyl]benzenesulfonamide] |  | ≤ 25 |
| C[C@H](COC(=O)NCCCn1ccnc1)N(c1cc(Cl)ccc1F)S(=O)(=O)c1ccc(Cl)cc1 [Example 1244, 4-Chloro-N-(2-fluoro-5-chlorophenyl)-N-[2-[[N′-[3-(1H-imidazol-1-yl)propylamino]carbonyl]oxy]-(R)-1-methylethyl]benzenesulfonamide] | ≤ 25 |  |
| C[C@H](COC(=O)NCCc1c[nH]cn1)N(c1cc(Cl)ccc1F)S(=O)(=O)c1ccc(Cl)cc1 [Example 1245, 4-Chloro-N-(2-fluoro-5-chlorophenyl)-N-[2-[[N′-[2-(1H-imidazol-4-yl)ethylamino]carbonyl]oxy]-(R)-1-methylethyl]benzenesulfonamide] | ≤ 25 |  |
| C[C@H]([C@@H](C)OC(=O)NCCCn1ccnc1)N(c1cc(Cl)ccc1CO)S(=O)(=O)c1ccc(Cl)cc1 [Example 1246, 4-Chloro-N-[5-chloro-2-(hydroxymethyl)phenyl]-N-[2-[[N′-[3-(1H-imidazol-1-yl)propylamino]carbonyl]oxy]-(1R)-(2R)-dimethylethyl]benzenesulfonamide] | ≤ 25 |  |
| CCN(CCCn1ccnc1)C(=O)OC[C@@H](C)N(c1cc(Cl)ccc1Cl)S(=O)(=O)c1ccc(Cl)cc1 [Example 1247, 4-Chloro-N-(2,5-dichlorophenyl)-N-[2-[[[N′-[3-(1H-imidazol-1-yl)propyl]-N′-ethylamino]carbonyl]oxy]-(R)-1-methylethyl]benzenesulfonamide] | ≤ 25 |  |
| C[C@H](COC(=O)NCCCn1cnnn1)N(c1cc(Cl)ccc1Cl)S(=O)(=O)c1ccc(Cl)cc1 [Example 1248, 4-Chloro-N-(2,5-dichlorophenyl)-N-[2-[[N′-[3-(1H-tetrazol-1-yl)propylamino]carbonyl]oxy]-(R)-1-methylethyl]benzenesulfonamide] | ≤ 25 |  |
| C[C@H](COC(=O)N(C)CCO)N(c1cc(Cl)ccc1Cl)S(=O)(=O)c1ccc(Cl)cc1 [Example 1249, 4-Chloro-N-(2,5-dichlorophenyl)-N-[2-[[N′-[2-(hydroxyethyl)-N′-methylamino]carbonyl]oxy]-(R)-1-methylethyl]benzenesulfonamide] | ≤ 25 |  |
| C[C@H](COC(=O)N(C)CCCn1ccnc1)N(c1cc(Cl)ccc1Cl)S(=O)(=O)c1ccc(Cl)cc1 [Example 1250, 4-Chloro-N-(2,5-dichlorophenyl)-N-[2-[[[N′-[3-(1H-imidazol-1-yl)propyl]-N′-methylamino]carbonyl]oxy]-(R)-1-methylethyl]benzenesulfonamide] | ≤ 25 |  |
| C[C@H](COC(=O)N(CCCn1ccnc1)CC1CC1)N(c1cc(Cl)ccc1CO)S(=O)(=O)c1ccc(Cl)cc1 [Example 1251, 4-Chloro-N-[5-chloro-2-(hydroxymethyl)phenyl]-N-[2-[[[N′-[3-(1H-imidazol-1-yl)propyl]-N′-cyclopropylmethylamino]carbonyl]oxy]-(R)-1-methylethyl]benzenesulfonamide] | ≤ 25 |  |
| CC(C)N(CCCn1ccnc1)C(=O)OC[C@@H](C)N(c1cc(Cl)ccc1CO)S(=O)(=O)c1ccc(Cl)cc1 [Example 1252, 4-Chloro-N-[5-chloro-2-(hydroxymethyl)phenyl]-N-[2-[[[N′-[3-(1H-imidazol-1-yl)propyl]-N′-(2-methylethyl)amino]carbonyl]oxy]-(R)-1-methylethyl]benzenesulfonamide] | ≤ 25 |  |
| CC([C@@H]1CCCN1CCS(C)(=O)=O)N(c1cc(Cl)ccc1Cl)S(=O)(=O)c1ccc(Cl)cc1 (some centres unmarked) [Example 1253] | 100 to 500 |  |
| CC([C@@H]1CCCN1)N(c1cc(Cl)ccc1Cl)S(=O)(=O)c1ccc(Cl)cc1 (some centres unmarked) [Example 1254] | > 500 |  |
| COC(=O)[C@@H](NC(=O)CC[C@@H](C)N(c1cc(Cl)ccc1F)S(=O)(=O)c1ccc(Cl)cc1)C(C)C [Example 1257, (R)-4-Chloro-N-(5-chloro-2-fluorophenyl)-N-[4-[N-(S)-[1-(methoxycarbonyl)-2-methylpropyl]amino]-1-methyl-4-oxobutyl]benzenesulfonamide] | 50 to 100 |  |

| Structure (SMILES) | IC50 [nM] | IC50 (Homo sapiens, 16 h) [nM] |
| --- | --- | --- |
| COC(=O)[C@H](CC(C)C)NC(=O)CCCC[C@@H](C)N(c1cc(Cl)ccc1F)S(=O)(=O)c1ccc(Cl)cc1 [Example 1258, (R)-4-Chloro-N-(5-chloro-2-fluorophenyl)-N-[6-[N-(S)-[1-(methoxycarbonyl)-3-methylbutyl]amino]-1-methyl-6-oxohexyl]benzenesulfonamide] | ≤ 25 |  |
| CC(C)C[C@H](NC(=O)CCCC[C@@H](C)N(c1cc(Cl)ccc1F)S(=O)(=O)c1ccc(Cl)cc1)C(=O)O [Example 1259, (R)-4-Chloro-N-(5-chloro-2-fluorophenyl)-N-[6-[N-(S)-[1-(carboxy)-3-methylbutyl]amino]-1-methyl-6-oxohexyl]benzenesulfonamide] | ≤ 25 |  |
| COC(=O)[C@@H](NC(=O)CCCC[C@@H](C)N(c1cc(Cl)ccc1F)S(=O)(=O)c1ccc(Cl)cc1)C(C)C [Example 1261, (R)-4-Chloro-N-(5-chloro-2-fluorophenyl)-N-[6-[N-(S)-[1-(methoxycarbonyl)-2-methylpropyl]amino]-1-methyl-6-oxohexyl]benzenesulfonamide] | ≤ 25 |  |
| CC(C)[C@H](NC(=O)CCCC[C@@H](C)N(c1cc(Cl)ccc1F)S(=O)(=O)c1ccc(Cl)cc1)C(=O)O [Example 1262, (R)-4-Chloro-N-(5-chloro-2-fluorophenyl)-N-[6-[N-(S)-[1-(carboxy)-2-methylpropyl]amino]-1-methyl-6-oxohexyl]benzenesulfonamide] | ≤ 25 |  |
| CC(C)C[C@H](NC(=O)CCCC[C@@H](C)N(c1cc(Cl)ccc1F)S(=O)(=O)c1ccc(Cl)cc1)C(=O)O [Example 1263, (R)-4-Chloro-N-(5-chloro-2-fluorophenyl)-N-[6-[N-(S)-[1-(carboxy)-3-methylbutyl]amino]-1-methyl-6-oxohexyl]benzenesulfonamide] | 25 to 50 |  |
| COC(=O)[C@@H](NC(=O)CCC[C@@H](C)N(c1cc(Cl)ccc1F)S(=O)(=O)c1ccc(Cl)cc1)C(C)C [Example 1264, (R)-4-Chloro-N-(5-chloro-2-fluorophenyl)-N-[5-[N-(S)-[1-(methoxycarbonyl)-2-methylpropyl]amino]-1-methyl-6-oxopentyl]benzenesulfonamide] | 100 to 500 |  |
| COC(=O)[C@H](CC(C)C)NC(=O)CCC[C@@H](C)N(c1cc(Cl)ccc1F)S(=O)(=O)c1ccc(Cl)cc1 [Example 1265, (R)-4-Chloro-N-(5-chloro-2-fluorophenyl)-N-[6-[N-(S)-[1-(methoxycarbonyl)-3-methylbutyl]amino]-1-methyl-5-oxopentyl]benzenesulfonamide] | 50 to 100 |  |
| COC(=O)[C@H](NC(=O)CCC[C@@H](C)N(c1cc(Cl)ccc1F)S(=O)(=O)c1ccc(Cl)cc1)C(C)C [Example 1266, (R)-4-Chloro-N-(5-chloro-2-fluorophenyl)-N-[5-[N-(R)-[1-(methoxycarbonyl)-2-methylpropyl]amino]-1-methyl-5-oxopentyl]benzenesulfonamide] | ≤ 25 |  |
| COC(=O)[C@@H](CC(C)C)NC(=O)CCC[C@@H](C)N(c1cc(Cl)ccc1F)S(=O)(=O)c1ccc(Cl)cc1 [Example 1267, (R)-4-Chloro-N-(5-chloro-2-fluorophenyl)-N-[5-[N-(R)-[1-(methoxycarbonyl)-3-methylbutyl]amino]-1-methyl-5-oxopentyl]benzenesulfonamide] | 25 to 50 |  |
| CC(C)[C@H](NC(=O)CCC[C@@H](C)N(c1cc(Cl)ccc1F)S(=O)(=O)c1ccc(Cl)cc1)C(=O)O [Example 1268, (R)-4-Chloro-N-(5-chloro-2-fluorophenyl)-N-[5-[N-(S)-[1-(carboxy)-2-methylpropyl]amino]-1-methyl-5-oxopentyl]benzenesulfonamide] | 100 to 500 |  |
| CC(C)[C@@H](NC(=O)CCC[C@@H](C)N(c1cc(Cl)ccc1F)S(=O)(=O)c1ccc(Cl)cc1)C(=O)O [Example 1270, (R)-4-Chloro-N-(5-chloro-2-fluorophenyl)-N-[5-[N-(R)-[1-(carboxy)-2-methylpropyl]amino]-1-methyl-5-oxopentyl]benzenesulfonamide] | 25 to 50 |  |
| CC(C)C[C@@H](NC(=O)CCC[C@@H](C)N(c1cc(Cl)ccc1F)S(=O)(=O)c1ccc(Cl)cc1)C(=O)O [Example 1271, (R)-4-Chloro-N-(5-chloro-2-fluorophenyl)-N-[5-[N-(R)-[1-(carboxy)-3-methylbutyl]amino]-1-methyl-5-oxopentyl]benzenesulfonamide] | 50 to 100 |  |
| CC1CN(C(=O)CCCC[C@@H](C)N(c2cc(Cl)ccc2F)S(=O)(=O)c2ccc(Cl)cc2)CCS1(=O)=O (some centres unmarked) [Example 1272] | ≤ 25 |  |
| CC1CS(=O)(=O)CCN1C(=O)CCCC[C@@H](C)N(c1cc(Cl)ccc1F)S(=O)(=O)c1ccc(Cl)cc1 (some centres unmarked) [Example 1273] | ≤ 25 |  |
| CC1CN(CCCCC[C@@H](C)N(c2cc(Cl)ccc2F)S(=O)(=O)c2ccc(Cl)cc2)CCS1(=O)=O (some centres unmarked) [Example 1274] | ≤ 25 |  |
| CC1CS(=O)(=O)CCN1CCCCC[C@@H](C)N(c1cc(Cl)ccc1F)S(=O)(=O)c1ccc(Cl)cc1 (some centres unmarked) [Example 1275] | ≤ 25 |  |
